Measured values taken from patent US8912188B2, “Substituted quinoxaline carboxylic acids for the inhibition of PASK” (BioEnergenix, LLC, priority 2011, dated 2014).

Legend:
[1] = In vivo pharmacokinetics in the Sprague Dawley rat; settings: for bioavailability / half-life: blood; for bioavailability: po, 10 mg/kg; for bioavailability / half-life / volume of distribution: summary of Table 3; for t1/2 (half-life): intravenous 3 mg/kg (1 mg/kg for Example 105), oral 10 mg/kg; for Cl (clearance) / Vss (volume of distribution): intravenous via tail vein, 3 mg/kg (1 mg/kg for Example 105); for Tmax (time to maximum blood concentration after an oral dose): oral gavage 10 mg/kg; for F (oral bioavailability): oral gavage 10 mg/kg vs intravenous 3 mg/kg (1 mg/kg for Example 105)
Description: Pharmacokinetics of a PASK Inhibitor
The test compounds were formulated in polyethylene glycol and beta cyclodextrin in water for administration at 1 mg/kg for Example 105, and at 3 mg/kg for Example 14, 15, and 18 for intravenous administration via the tail vein and 10 mg/kg for oral administration by gavage. Blood samples were collected at 0.083, 0.25, 0.5, 1, 2, 4, 6, 8, and 24 hours and the samples were analyzed for test compounds content using LC/MS/MS. The data was submitted to pharmacokinetic analysis using WinNonLin software and the observed and calculated pharmacokinetic parameters are shown in Table 3 for each compound.

[2] = molecular target: T1, PASK (UniProt #Q96RG2; human recombinant N-terminal GST tagged construct, residues 879-1323) (Homo sapiens, UniProt Q96RG2); experiment: PASK ATP Radiochemical Assay; type: biochemical; settings: 33P-ATP, Myelin Basic Protein substrate, 120 min at room temperature, read-out: IC50 Kinase Domain
T1 construct: human recombinant N-terminal GST tagged construct, residues 879-1323; GST (N); host or cells: insect cells
T1 sequence (Q96RG2 879-1323, stated change not applied): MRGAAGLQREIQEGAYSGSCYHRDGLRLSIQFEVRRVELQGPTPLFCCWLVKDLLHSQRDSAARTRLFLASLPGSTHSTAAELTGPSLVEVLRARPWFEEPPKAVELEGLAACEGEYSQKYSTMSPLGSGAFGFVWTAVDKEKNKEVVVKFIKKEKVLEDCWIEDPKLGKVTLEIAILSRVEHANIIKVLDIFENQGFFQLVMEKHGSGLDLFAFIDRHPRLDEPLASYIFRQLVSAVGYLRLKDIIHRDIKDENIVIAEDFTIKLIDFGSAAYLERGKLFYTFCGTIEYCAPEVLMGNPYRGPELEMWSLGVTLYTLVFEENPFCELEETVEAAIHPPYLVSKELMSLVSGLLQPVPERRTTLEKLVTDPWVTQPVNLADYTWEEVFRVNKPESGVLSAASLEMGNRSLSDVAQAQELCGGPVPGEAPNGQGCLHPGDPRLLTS
Description: Biochemical Assay for hPASK Activity
PASK ATP Radiochemical Assay
Test compounds in DMSO are then added and the mixture, followed by delivery of ^33P-ATP (specific activity 0.01 μCi/μl final) to initiate the reaction. […] The entire reaction mixture is washed through onto a P81 Phosphocellulose paper and washed three times for 10 minutes in 75 mM phosphoric acid and once in methanol prior to drying and scintillation counting.

[3] = molecular target: T2, PASK (Invitrogen) (Homo sapiens, UniProt Q96RG2); experiment: PAS Kinase FRET Assay; type: biochemical; settings: PAS kinase TR-FRET assay (665 nm/615 nm), 2 hours at 25° C.; read-out: IC50 Kinase Domain
T2 construct: IC50 Kinase Domain; purchased Invitrogen
T2 sequence (Q96RG2 999-1251 limits assumed): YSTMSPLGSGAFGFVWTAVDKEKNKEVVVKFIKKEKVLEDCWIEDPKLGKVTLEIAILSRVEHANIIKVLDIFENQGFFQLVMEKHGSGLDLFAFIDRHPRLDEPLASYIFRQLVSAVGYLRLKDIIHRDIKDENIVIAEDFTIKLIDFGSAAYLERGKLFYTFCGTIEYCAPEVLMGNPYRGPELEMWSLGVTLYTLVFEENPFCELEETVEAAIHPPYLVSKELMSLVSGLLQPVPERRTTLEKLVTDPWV

Row | bioavailability [1] [%] | half-life [1] [h] | t1/2 (half-life) [1] [h] | Cl (clearance) [1] [mL/min/kg] | Vss (volume of distribution) [1] [L/kg] | Tmax (time to maximum blood concentration after an oral dose) [1] [h] | F (oral bioavailability) [1] [%] | volume of distribution [1] | IC50 [2] [µM] | IC50 [3] [µM] | Structure (SMILES)
1 | ≥ 63 | ≥ 3 | 7.72 | 1.33 | 0.366 | 8 | 74.8 | low | < 10 | < 10 | CC(C)N(C)c1nc2cc(C(=O)O)ccc2nc1-c1cc2cc(F)ccc2o1 [Example 18, 2-(5-Fluorobenzofuran-2-yl)-3-(isopropyl(methyl)amino)quinoxaline-6-carboxylic acid]
2 | ≥ 63 | ≥ 3 | 3.68 | 1.72 | 0.362 | 6 | 63.4 | low | < 10 | < 10 | C[C@H]1CCCN1c1nc2cc(C(=O)O)ccc2nc1-c1cc2ccccc2o1 [Example 14, (S)-2-(Benzofuran-2-yl)-3-(2-methylpyrrolidin-1-yl)quinoxaline-6-carboxylic acid]
3 | > 74 | > 7 | 7.72 | 0.712 | 0.407 | 1 | 74.8 | low | < 10 | < 10 | C[C@H]1COCCN1c1nc2cc(C(=O)O)ccc2nc1-c1ccc(F)cc1 [Example 105, (S)-2-(4-Fluorophenyl)-3-(3-methylmorpholino)quinoxaline-6-carboxylic acid]
4 | ≥ 63 | ≥ 3 | 3.39 | 1.4 | 0.347 | 6 | 79 | low | < 10 | < 10 | CN(c1nc2cc(C(=O)O)ccc2nc1-c1cc2ccccc2o1)C1CC1 [Example 15, 2-(Benzofuran-2-yl)-3-(cyclopropyl(methyl)amino)quinoxaline-6-carboxylic acid]
5 | – | – | – | – | – | – | – | – | < 10 | < 10 | CC(C)N(C)c1nc2cc(C(=O)O)c(O)cc2nc1-c1ccc(F)cc1 [Example 120, 2-(4-Fluorophenyl)-7-hydroxy-3-(isopropyl(methyl)amino)quinoxaline-6-carboxylic acid]
6 | – | – | – | – | – | – | – | – | < 10 | < 10 | Cc1cc2cc(-c3nc4ccc(C(=O)O)cc4nc3N3CCC[C@@H]3C)ccc2[nH]1 [Example 75, 2-(2-Methyl-1H-indol-5-yl)-3-[(2S)-2-methylpyrrolidin-1-yl]quinoxaline-6-carboxylic acid]
7 | – | – | – | – | – | – | – | – | < 10 | < 10 | Cc1cc2cc(-c3nc4ccc(C(=O)O)cc4nc3N3CCCC[C@@H]3C)ccc2[nH]1 [Example 88, (S)-2-(2-Methyl-1H-indol-5-yl)-3-(2-methylpiperidin-1-yl)quinoxaline-6-carboxylic acid]
8 | – | – | – | – | – | – | – | – | < 10 | < 10 | Cc1n[nH]c2ccc(-c3nc4ccc(C(=O)O)cc4nc3N(C)C(C)C)cc12 [Example 44, 2-(3-Methyl-M-indazol-5-yl)-3-(isopropyl(methyl)amino)quinoxaline-6-carboxylic acid]
9 | – | – | – | – | – | – | – | – | < 10 | < 10 | CC(C)N(C)c1nc2cc(C(=O)O)ccc2nc1-c1ccc2c(c1)CCCO2 [Example 21, 2-(Chroman-6-yl)-3-(isopropyl(methyl)amino)quinoxaline-6-carboxylic acid]
10 | – | – | – | – | – | – | – | – | < 10 | < 10 | C[C@H]1CCCN1c1nc2cc(C(=O)O)ccc2nc1-c1ccc2scnc2c1 [Example 57, 2-(1,3-Benzothiazol-5-yl)-3-[(2S)-2-methylpyrrolidin-1-yl]quinoxaline-6-carboxylic acid]
11 | – | – | – | – | – | – | – | – | < 10 | < 10 | CCN(c1nc2cc(C(=O)O)ccc2nc1-c1ccc(F)cc1)C1CCCCC1 [Example 112, 3-[Cyclohexyl(ethyl)amino]-2-(4-fluorophenyl)quinoxaline-6-carboxylic acid]
12 | – | – | – | – | – | – | – | – | < 10 | < 10 | Cc1cc2cc(-c3nc4ccc(C(=O)O)cc4nc3N(C)C(C)C)ccc2[nH]1 [Example 76, 3-[Methyl(propan-2-yl)amino]-2-(2-methyl-M-indol-5-yl)quinoxaline-6-carboxylic acid]
13 | – | – | – | – | – | – | – | – | < 10 | < 10 | CC(C)N(C)c1nc2cc(C(=O)O)ccc2nc1-n1cnc2ccccc21 [Example 63, 2-(1H-Benzo[d]imidazol-1-yl)-3-(isopropyl(methyl)amino)quinoxaline-6-carboxylic acid]
14 | – | – | – | – | – | – | – | – | < 10 | < 10 | CN(c1nc2cc(C(=O)O)ccc2nc1-c1ccc(F)cc1)C1CCCC1 [Example 135, 3-(Cyclopentyl(methyl)amino)-2-(4-fluorophenyl)quinoxaline-6-carboxylic acid]
